{"source": "patent US20250360143A1", "about": "“COMPOSITIONS AND METHODS FOR PHA[…] OF STROKE AND […] REPERFUSION INJURY” (priority 2022, published 2025)", "key": {"[1]": {"system": "C57B/6 mice, transient focal cerebral ischemia (MCAo)", "settings": "1 mg/kg/day for 3 days from onset of acute stroke; previously shown; cited from earlier work"}, "[2]": {"system": "45 receptors, channels and transporters", "assay": "Off-target binding at 45 receptors, channels and transporters (NIMH PDSP)", "settings": "at 10 μM"}, "[3]": {"system": "C57B/6 mice, transient focal cerebral ischemia (MCAo)", "settings": "mouse, in vivo"}, "[4]": {"target": "T1, D3 dopamine receptor (Homo sapiens, UniProt P35462)", "T1 construct": "NIMH Psychoactive Drug Screening program", "T1 sequence (P35462 whole entry)": "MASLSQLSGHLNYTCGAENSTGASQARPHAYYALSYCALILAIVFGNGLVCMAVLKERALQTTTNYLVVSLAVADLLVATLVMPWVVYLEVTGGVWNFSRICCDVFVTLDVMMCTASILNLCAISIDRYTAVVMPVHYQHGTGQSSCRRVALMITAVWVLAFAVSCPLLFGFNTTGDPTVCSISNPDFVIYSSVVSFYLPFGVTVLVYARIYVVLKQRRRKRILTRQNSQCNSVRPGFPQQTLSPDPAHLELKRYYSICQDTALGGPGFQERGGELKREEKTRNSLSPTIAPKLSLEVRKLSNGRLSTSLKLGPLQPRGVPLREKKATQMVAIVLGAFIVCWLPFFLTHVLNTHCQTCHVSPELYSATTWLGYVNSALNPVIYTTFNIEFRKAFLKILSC", "assay": "Off-target binding, NIMH Psychoactive Drug Screening program", "settings": "read-out: inhibition of binding at D3 dopamine receptor"}, "[5]": {"target": "T2, H2 histamine receptor (Homo sapiens, UniProt P25021)", "T2 construct": "NIMH Psychoactive Drug Screening program", "T2 sequence (P25021 whole entry)": "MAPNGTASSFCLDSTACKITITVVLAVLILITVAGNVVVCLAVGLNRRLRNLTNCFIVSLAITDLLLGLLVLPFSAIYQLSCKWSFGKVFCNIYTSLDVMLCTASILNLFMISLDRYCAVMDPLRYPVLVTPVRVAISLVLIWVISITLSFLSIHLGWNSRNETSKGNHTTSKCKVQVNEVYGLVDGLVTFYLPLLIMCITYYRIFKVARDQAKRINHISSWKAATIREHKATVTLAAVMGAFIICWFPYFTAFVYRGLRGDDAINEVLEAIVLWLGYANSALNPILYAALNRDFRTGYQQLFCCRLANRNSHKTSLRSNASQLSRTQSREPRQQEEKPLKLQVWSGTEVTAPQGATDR", "assay": "Off-target binding, NIMH Psychoactive Drug Screening program", "settings": "read-out: inhibition of binding at H2 histamine receptor"}, "[6]": {"system": "mice, LAD ligation ischemia/reperfusion", "assay": "Myocardial ischemia/reperfusion (LAD ligation), echocardiography", "type": "in vivo, mouse", "settings": "2 mg/kg/day s.c. minipump 3 days at reperfusion after 60 min LAD occlusion, 2 weeks or 4 weeks post-I/R, vs vehicle"}, "[7]": {"system": "middle-aged mice after MCAo", "settings": "dose 3 mg/kg; four weeks after MCAo; vs Veh; listed as MRS 4719, 3 mg/kg"}, "[8]": {"target": "T3, mP2X4R (Mus musculus, UniProt Q9JJX6)", "T3 sequence (Q9JJX6 1-388)": "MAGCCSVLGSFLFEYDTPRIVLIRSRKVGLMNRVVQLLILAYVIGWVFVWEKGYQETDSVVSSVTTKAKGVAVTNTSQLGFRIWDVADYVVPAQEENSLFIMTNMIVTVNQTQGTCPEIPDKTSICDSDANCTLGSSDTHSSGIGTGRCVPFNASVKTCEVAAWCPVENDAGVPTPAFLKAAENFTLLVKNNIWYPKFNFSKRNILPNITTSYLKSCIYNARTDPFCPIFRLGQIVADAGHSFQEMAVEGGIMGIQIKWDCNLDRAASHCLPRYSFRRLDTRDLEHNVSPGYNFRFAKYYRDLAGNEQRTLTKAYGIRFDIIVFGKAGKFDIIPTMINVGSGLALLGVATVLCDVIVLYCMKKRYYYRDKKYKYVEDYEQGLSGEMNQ", "settings": "compared with hP2X4R; cited from earlier work"}, "[9]": {"system": "mouse", "settings": "cited from earlier work"}, "[10]": {"target": "T4, hP2X1R (Homo sapiens, UniProt P51575)", "T4 construct": "expressed in transfected cells; host or cells: CHO-K1", "T4 sequence (P51575 1-399)": "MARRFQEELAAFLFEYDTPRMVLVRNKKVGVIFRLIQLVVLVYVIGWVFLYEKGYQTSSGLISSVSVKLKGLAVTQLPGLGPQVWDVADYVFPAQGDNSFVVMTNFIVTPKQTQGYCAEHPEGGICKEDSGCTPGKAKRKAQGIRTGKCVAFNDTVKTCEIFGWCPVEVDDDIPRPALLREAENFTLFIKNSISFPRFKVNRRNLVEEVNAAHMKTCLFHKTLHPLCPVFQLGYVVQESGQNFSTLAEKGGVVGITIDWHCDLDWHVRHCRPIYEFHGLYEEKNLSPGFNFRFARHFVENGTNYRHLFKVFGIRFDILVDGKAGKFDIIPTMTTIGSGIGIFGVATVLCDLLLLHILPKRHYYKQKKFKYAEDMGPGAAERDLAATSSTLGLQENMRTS", "assay": "cell-based"}, "[11]": {"target": "T5, hP2X2/3R (Homo sapiens, UniProt P56373+Q9UBL9)", "T5 construct": "expressed in transfected cells; host or cells: CHO-K1", "T5 sequence (Q9UBL9 1-471)": "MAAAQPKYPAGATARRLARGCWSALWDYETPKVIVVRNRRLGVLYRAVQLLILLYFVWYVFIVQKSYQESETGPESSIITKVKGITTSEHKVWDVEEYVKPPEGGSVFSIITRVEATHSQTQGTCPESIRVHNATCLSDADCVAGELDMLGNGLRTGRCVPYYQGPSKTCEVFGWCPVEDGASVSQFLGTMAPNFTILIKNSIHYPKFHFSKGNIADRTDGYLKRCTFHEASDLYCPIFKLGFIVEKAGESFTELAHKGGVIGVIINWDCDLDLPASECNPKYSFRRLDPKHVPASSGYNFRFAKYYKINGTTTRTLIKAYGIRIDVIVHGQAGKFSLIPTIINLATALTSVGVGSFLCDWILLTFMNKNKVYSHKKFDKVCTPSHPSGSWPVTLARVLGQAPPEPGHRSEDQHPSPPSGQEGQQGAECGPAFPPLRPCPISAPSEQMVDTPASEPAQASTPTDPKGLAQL", "T5 sequence (P56373 1-397)": "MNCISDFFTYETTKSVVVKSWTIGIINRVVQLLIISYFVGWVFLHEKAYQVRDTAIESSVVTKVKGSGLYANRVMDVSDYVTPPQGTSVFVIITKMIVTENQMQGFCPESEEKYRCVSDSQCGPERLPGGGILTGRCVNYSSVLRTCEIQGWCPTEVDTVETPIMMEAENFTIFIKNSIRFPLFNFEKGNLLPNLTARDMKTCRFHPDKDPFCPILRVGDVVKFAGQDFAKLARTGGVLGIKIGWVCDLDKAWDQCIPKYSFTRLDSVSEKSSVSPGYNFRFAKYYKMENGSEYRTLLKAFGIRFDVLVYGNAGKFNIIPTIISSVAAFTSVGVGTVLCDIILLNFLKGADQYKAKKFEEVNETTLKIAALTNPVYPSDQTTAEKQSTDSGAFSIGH", "assay": "cell-based", "type": "cell-based"}, "[12]": {"target": "T6, hP2X3R (Homo sapiens, UniProt P56373)", "T6 construct": "expressed in transfected cells; host or cells: CHO-K1", "T6 sequence (P56373 1-397)": "T5 sequence (P56373 1-397)", "assay": "cell-based", "type": "cell-based"}, "[13]": {"target": "T7, hP2X4R (Homo sapiens, UniProt Q99571)", "T7 construct": "expressed in transfected cells; host or cells: HEK-293", "T7 sequence (Q99571 1-388)": "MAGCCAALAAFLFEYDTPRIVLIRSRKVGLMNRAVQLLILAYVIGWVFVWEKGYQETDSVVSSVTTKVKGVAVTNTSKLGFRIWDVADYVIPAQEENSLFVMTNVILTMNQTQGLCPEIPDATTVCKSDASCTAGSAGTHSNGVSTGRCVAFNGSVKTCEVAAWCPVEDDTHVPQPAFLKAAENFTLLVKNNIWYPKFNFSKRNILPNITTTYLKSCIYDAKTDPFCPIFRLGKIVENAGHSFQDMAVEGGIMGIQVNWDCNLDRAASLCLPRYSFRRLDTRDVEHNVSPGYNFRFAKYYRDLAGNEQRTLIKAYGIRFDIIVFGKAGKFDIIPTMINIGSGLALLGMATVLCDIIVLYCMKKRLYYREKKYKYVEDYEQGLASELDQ", "assay": "cell-based", "type": "cell-based"}}, "note": "Entries after “also recorded” stand apart in the source; their conditions may differ. Counter-ions that a name gives are not always drawn. Like-named read-outs stand apart in the source and are kept apart here.", "data": [{"compound": "O=C1CN=C(c2cccc(Br)c2)c2oc3ccccc3c2N1", "note": "[Compound 5-BDBD, 5-(3-bromophenyl)-1,3-dihydro-2H-benzofuro[3,2-e]-1,4-diazepin-2-one]", "values": [{"measurement": "stroke infarct size", "setting": "[1]", "value": "reduced stroke infarct size"}]}, {"compound": "Cc1ccc2c3c(ccc2c1)N(c1cccc(-c2noc(=S)[nH]2)c1)C(=O)CC(=O)N3", "note": "[Compound 21c, 9-Methyl-5-(3-(5-thioxo-4,5-dihydro-1,2,4-oxadiazol-3-yl)phenyl)-1,5-dihydro-2H-naphtho[1,2-b][1,4]diazepine-2,4(3H)-dione]", "values": [{"measurement": "off-target interactions at 45 receptors, channels and transporters", "setting": "[2]", "value": "no significant interactions"}, {"measurement": "cortical infarct volume alone", "setting": "[3]; 5 mg/kg/day", "value": "not statistically significant"}, {"measurement": "striatal infarct volume alone", "setting": "[3]; 5 mg/kg/day", "value": "not statistically significant"}, {"measurement": "total hemispheric infarct volume", "setting": "[3]; 5 mg/kg/day", "value": "moderate but significant decrease; also recorded: reduced total hemispheric infarct volume"}]}, {"compound": "O=C1CC(=O)N(c2cccc(-c3noc(=S)[nH]3)c2)c2cc(Br)c3ccccc3c2N1", "note": "[Compound 21d, 7-Bromo-5-(3-(5-thioxo-4,5-dihydro-1,2,4-oxadiazol-3-yl)phenyl)-1,5-dihydro-2H-naphtho[1,2-b][1,4]diazepine-2,4(3H)-dione triethylamine salt]", "values": [{"measurement": "off-target interactions at 45 receptors, channels and transporters", "setting": "[2]", "value": "no significant interactions"}]}, {"compound": "O=C1CC(=O)N(c2ccnc(-c3noc(=S)[nH]3)c2)c2ccc3ccccc3c2N1", "note": "[Compound 21u, 5-(2-(5-Thioxo-4,5-dihydro-1,2,4-oxadiazol-3-yl)pyridin-4-yl)-1,5-dihydro-2H-naphtho[1,2-b][1,4]diazepine-2,4(3H)-dione triethylamine salt]", "values": [{"measurement": "inhibition at 10 µM", "setting": "[4]", "value": "74 ± 10", "unit": "%"}, {"measurement": "inhibition at 10 µM", "setting": "[5]", "value": "89 ± 4", "unit": "%"}, {"measurement": "cortical infarct volume", "setting": "[3]", "value": "significantly reduced"}, {"measurement": "striatal infarct volume", "setting": "[3]", "value": "no statistically significant decrease"}, {"measurement": "total hemispheric infarct volume", "setting": "[3]", "value": "significantly reduced"}, {"measurement": "neuroprotection based on total hemispheric infarct volume size", "setting": "[3]; 3 mg/kg", "value": "significant neuroprotection"}, {"measurement": "decline in fractional shortening (FS)", "setting": "[6]; listed as MRS 4719", "value": "less than those in vehicle-treated mice"}, {"measurement": "decline in left ventricular ejection fraction (EF)", "setting": "[6]; listed as MRS 4719", "value": "less than those in vehicle-treated mice"}, {"measurement": "decline in fractional shortening (FS)", "setting": "[6]; listed as MRS4719", "value": "lesser degree of decline"}, {"measurement": "decline in left ventricular ejection fraction (EF)", "setting": "[6]; listed as MRS4719", "value": "lesser degree of decline"}, {"measurement": "learning and memory, NORT", "setting": "[7]", "value": "significant retention of memory; also recorded: reached to statistical significance"}]}, {"compound": "O=C1CC(=O)N(c2cccc(-c3noc(=S)[nH]3)c2)c2ccc3ccccc3c2N1.[Na]", "note": "[Compound 22a, 5-(3-(5-Thioxo-4,5-dihydro-1,2,4-oxadiazol-3-yl)phenyl)-1,5-dihydro-2H-naphtho[1,2-b][1,4]diazepine-2,4(3H)-dione sodium salt]", "values": [{"measurement": "off-target interactions at 45 receptors, channels and transporters", "setting": "[2]", "value": "no significant interactions"}, {"measurement": "potency in blocking mP2X4R effects in vitro", "setting": "[8]", "value": "as potent in blocking mP2X4R effects in vitro as at hP2X4R"}, {"measurement": "in vivo efficacy in the mouse", "setting": "[9]", "value": "considerable in vivo efficacy"}]}, {"compound": "CCN(CC)CC.O=C1CC(=O)N(c2cccc(-c3noc(=S)[nH]3)c2)c2cc(-c3ccccc3)c3ccccc3c2N1", "note": "[Compound 211, 7-Phenyl-5-(3-(5-thioxo-4,5-dihydro-1,2,4-oxadiazol-3-yl)phenyl)-1,5-dihydro-2H-naphtho[1,2-b][1,4]diazepine-2,4(3H)-dione triethylamine salt]", "values": [{"measurement": "hP2X1R % inhib.", "setting": "[10]", "value": 14, "unit": "%"}, {"measurement": "hP2X2/3R % inhib.", "setting": "[11]", "value": 10, "unit": "%"}, {"measurement": "hP2X3R % inhib.", "setting": "[12]", "value": 11, "unit": "%"}, {"measurement": "IC50", "setting": "[13]", "value": 20.7, "unit": "µM"}]}]}
